Test [1] can be described thus: Inhibition of HIV1 His6-tagged integrase-recombinant flag-tagged LEDGF/p75 interaction at 100 uM after 1 hr by alphascreen assay. (Bead proximity is the source of the signal in Alpha formats.)
Test [2] in a line: Inhibition of HIV-1 His6-tagged integrase-recombinant flag-tagged LEDGF/p75 interaction 1 hr by alphascreen assay.
A short description of test [3]: Selectivity ratio of compound IC50 to CHIBA-3003 IC50 for HIV-1 His6-tagged integrase-recombinant flag-tagged LEDGF/p75 interaction.

As usually defined, the inhibition is the drop in the measured response relative to a control, in per cent. Usually IC50 stands for the concentration at which inhibition is half-maximal.

As to `Cc1ccc(Cn2cc(C(=O)/C=C(\O)C(=O)O)c3c(O)cccc32)c(C)c1`, the inhibition in test [1] was found to be 55%. Take `Cc1ccc(Cn2cc(C(=O)/C=C(\O)C(=O)O)c3c(O)cccc32)cc1`: the inhibition in test [1] turned out to be 86%. In test [2], the half-maximal inhibitory concentration (IC50) was determined as 68 µM.

Turning to `Cc1ccccc1Cn1cc(C(=O)/C=C(\O)C(=O)O)c2c(O)cccc21`, the inhibition in test [1] came out at 20%. As for `Cc1ccc(Cn2cc(C(=O)C3=C(O)C(=O)OC3)c3c(O)cccc32)c(C)c1`, the inhibition in test [1] worked out at 96%. In addition, the IC50 in test [2] amounted to 11.7 µM. As for `CCOC(=O)/C(O)=C/C(=O)c1cn(Cc2cccc(C)c2C)c2cccc(O)c12`, the inhibition in test [1] stood at 57%. Still for that read-out and setting: in the case of `CCOC(=O)/C(O)=C/C(=O)c1cn(Cc2cccc(C)c2)c2cccc(O)c12` it was 45%. Regarding `Cc1cc(C)cc(Cn2cc(C(=O)C3=C(O)C(=O)OC3)c3c(O)cccc32)c1`, the inhibition in test [1] was 69%. In addition, the concentration for half-maximal inhibition (IC50) in test [2] worked out at 123 µM. Regarding `CCOC(=O)/C(O)=C/C(=O)c1cn(Cc2c(C)cccc2C)c2cccc(O)c12`, the inhibition in test [1] is 47%. With `Cc1ccc(Cn2cc(C(=O)C3=C(O)C(=O)OC3)c3c(O)cccc32)cc1`, the inhibition in test [1] amounted to 81%. Besides, the half-inhibitory concentration (IC50) in test [2] is 8.7 µM. Take `Cc1cccc(C)c1Cn1cc(C(=O)/C=C(\O)C(=O)O)c2c(O)cccc21`: in test [1], the inhibition turned out to be 72%. Consider `Cc1cccc(Cn2cc(C(=O)C3=C(O)C(=O)OC3)c3c(O)cccc32)c1`, for which the inhibition in test [1] is 61%. Also, in test [2], the 50% inhibitory concentration (IC50) was determined as 53.3 µM.

Consider `Cc1cccc(Cn2cc(C(=O)C3=C(O)C(=O)OC3)c3c(O)cccc32)c1C`, for which, in test [1], the inhibition is 70%. The same measure, in the same setting: in the case of `Cc1ccccc1Cn1cc(C(=O)C2=C(O)C(=O)OC2)c2c(O)cccc21` it was 34%.

Consider `O=C(O)/C(O)=C/C(=O)c1cn(Cc2ccc(F)cc2)c2cccc(O)c12`, for which the inhibition in test [1] amounted to 56%. Moreover, the IC50 in test [2] was determined as 76 µM. Turning to `Cc1cccc(C)c1Cn1cc(C(=O)C2=C(O)C(=O)OC2)c2c(O)cccc21`, the inhibition in test [1] was found to be 70%. The IC50 in test [2] stood at 7.5 µM.

For `CCOC(=O)/C(O)=C/C(=O)c1cn(Cc2ccc(C)cc2)c2cccc(O)c12`, the inhibition in test [1] came to 60%. Moreover, in test [2], the IC50 was determined as 171 µM. Take `CCOC(=O)/C(O)=C/C(=O)c1cn(Cc2ccccc2C)c2cccc(O)c12`: the inhibition in test [1] is 24%. Consider `Cc1cccc(Cn2cc(C(=O)/C=C(\O)C(=O)O)c3c(O)cccc32)c1C`, for which, in test [1], the inhibition came out at 93%. Also, the 50% inhibitory concentration (IC50) in test [2] came to 28.5 µM.

`Cc1cc(C)cc(Cn2cc(C(=O)/C=C(\O)C(=O)O)c3c(O)cccc32)c1`: the Ratio IC50 in test [3] is 10. For the same molecule, the inhibition in test [1] is 94%. In addition, the IC50 in test [2] was found to be 3.5 µM. Consider `CCOC(=O)/C(O)=C/C(=O)c1cn(Cc2cc(C)ccc2C)c2cccc(O)c12`, for which, in test [1], the inhibition came to 33%. On to `O=C(O)/C(O)=C/C(=O)c1c[nH]c2cccc(O)c12`, for which the inhibition in test [1] was 71%. For the same molecule, the IC50 in test [2] came to 35 µM. `Cc1cccc(Cn2cc(C(=O)/C=C(\O)C(=O)O)c3c(O)cccc32)c1`: the inhibition in test [1] worked out at 16%. Turning to `CCOC(=O)/C(O)=C/C(=O)c1cn(Cc2ccc(C)cc2C)c2cccc(O)c12`, in test [1], the inhibition is 58%. Same read-out and setting: the value for `Cc1ccc(C)c(Cn2cc(C(=O)/C=C(\O)C(=O)O)c3c(O)cccc32)c1` was 40%; that for `CCOC(=O)/C(O)=C/C(=O)c1cn(Cc2cc(C)cc(C)c2)c2cccc(O)c12` was 52%. Same read-out and setting: the value for `Cc1ccc(C)c(Cn2cc(C(=O)C3=C(O)C(=O)OC3)c3c(O)cccc32)c1` was 38%.
